Laboratory results from patent US20250195666A1, “MIR-142 COMPOUNDS AND USES THEREOF” (City of Hope, priority 2021, published 2025).

System: miR-142^−/−BCR-ABL LSKs
Procedure: LSKs from diseased miR-142 null and miR-142 wt BCR-ABL mice were treated with CpG-M-miR-142 (2 μM) or SCR±NIL (2 μM) for 72 h.

Q: Which apoptosis does the source give for Cc1cn(-c2cc(NC(=O)c3ccc(C)c(Nc4nccc(-c5cccnc5)n4)c3)cc(C(F)(F)F)c2)cn1 [NIL, nilotinib] here?
A: lower apoptosis

Q: What about the cell growth of the same compound?
A: higher cell growth
